Results on 16 molecules are retold here after ChEMBL document CHEMBL3352228 (J Med Chem, 2014).

The Papp is a coefficient for how fast a substance crosses the barrier.

Each structure is given as a SMILES string.

Test system in the first series: not listed separately
The experiment in a line: in vitro. The conditions noted are these: pig, LLC-PK1.
In the case of `CC(C)(C)COc1cnc2c(c1)[C@]1(COC(N)=N1)c1cc(-c3cccnc3F)ccc1O2`, the Papp at 2 h came out at 14 ×10⁻⁶ cm/s.

Consider `COC(C)(C)C#Cc1cnc2c(c1)[C@]1(COC(N)=N1)c1cc(-c3cccnc3F)ccc1O2`, for which the Papp at 2 h amounted to 12 ×10⁻⁶ cm/s.

Consider `NC1=N[C@@]2(CO1)c1cc(-c3cccnc3F)ccc1Oc1ncc(C3=CCOCC3)cc12`, for which the apparent permeability coefficient (Papp) at 2 h was 20 ×10⁻⁶ cm/s. Against the preceding molecule, the Papp at 2 h is about 1.7-fold higher.

In turn, `CC1(C)C=C(c2cnc3c(c2)[C@]2(COC(N)=N2)c2cc(-c4cccnc4F)ccc2O3)CCO1` gave a Papp at 2 h of 17 ×10⁻⁶ cm/s.

Turning to `CC(C)(C)COc1ccc2c(c1)[C@]1(COC(N)=N1)c1cc(-c3cncnc3)cnc1O2`, the Papp at 2 h stood at 16 ×10⁻⁶ cm/s.

Take `NC1=N[C@@]2(CO1)c1cc(-c3cccnc3F)ccc1Oc1ncc(C3=CCCOC3)cc12`: the apparent permeability coefficient (Papp) at 2 h stood at 11 ×10⁻⁶ cm/s.

`CC(C)(C)COc1cnc2c(c1)[C@]1(COC(N)=N1)c1cc(-c3cncnc3)ccc1O2` displayed an apparent permeability coefficient (Papp) at 2 h of 16 ×10⁻⁶ cm/s. This Papp at 2 h and that of the molecule before are within 1.5-fold of each other.

`CC(C)(O)C#Cc1cnc2c(c1)[C@]1(COC(N)=N1)c1cc(-c3cccnc3F)ccc1O2`: the apparent permeability coefficient (Papp) at 2 h was determined as 11 ×10⁻⁶ cm/s.

`N#Cc1ccc(-c2cnc3c(c2)[C@]2(COC(N)=N2)c2cc(-c4cccnc4F)ccc2O3)cc1`: the Papp at 2 h is 16 ×10⁻⁶ cm/s.

Regarding `NC1=N[C@@]2(CO1)c1cc(-c3cccnc3F)ccc1Oc1ncc(C3CCOCC3)cc12`, the apparent permeability coefficient (Papp) at 2 h was 15 ×10⁻⁶ cm/s.

In turn, `COC(C)(C)COc1cnc2c(c1)[C@]1(COC(N)=N1)c1cc(-c3cccnc3F)ccc1O2` had a Papp at 2 h of 16 ×10⁻⁶ cm/s.

Take `CC(C)(C)C#Cc1cnc2c(c1)[C@]1(COC(N)=N1)c1cc(-c3cccnc3F)ccc1O2`: the Papp at 2 h is 9.5 ×10⁻⁶ cm/s.

Consider `NC1=N[C@@]2(CO1)c1cc(-c3cccnc3F)ccc1Oc1ncc(-c3ccnc(F)c3)cc12`, for which the Papp at 2 h amounted to 15 ×10⁻⁶ cm/s.

`Cc1ccc(-c2cnc3c(c2)[C@]2(COC(N)=N2)c2cc(-c4cccnc4F)ccc2O3)cc1` gave an apparent permeability (Papp) at 2 h of 14 ×10⁻⁶ cm/s.

With `NC1=N[C@@]2(CO1)c1cc(-c3cccnc3F)ccc1Oc1ncc(N3CCOCC3)cc12`, the apparent permeability coefficient (Papp) at 2 h was found to be 10 ×10⁻⁶ cm/s.

With `CC(C)(C)COc1cnc2c(c1)[C@]1(COC(N)=N1)c1cc(-c3cccnc3)ccc1O2`, the Papp at 2 h was found to be 11 ×10⁻⁶ cm/s.

Test system in another series: not listed separately
The experiment in a line: in vivo. The conditions noted are these: Sprague-Dawley, rat, CSF, po, 10 mg/kg.
As to `CC1(C)C=C(c2cnc3c(c2)[C@]2(COC(N)=N2)c2cc(-c4cccnc4F)ccc2O3)CCO1`, the concentration at 4 h worked out at 5 nM.

Test system in the next series: not listed separately
The experiment in a line: in vivo. As to conditions: Sprague-Dawley, rat, plasma, po, 10 mg/kg.
Take `CC1(C)C=C(c2cnc3c(c2)[C@]2(COC(N)=N2)c2cc(-c4cccnc4F)ccc2O3)CCO1`: the concentration at 4 h was 1010 nM.

The test system of a further series is Plasma.
Experiment: not given
The conditions noted are these: rat, in vivo, po, 10 mg/kg, 4 h.
Turning to `CC1(C)C=C(c2cnc3c(c2)[C@]2(COC(N)=N2)c2cc(-c4cccnc4F)ccc2O3)CCO1`, the “Cp(f)” value was 45 nM.
